Measured values from patent US20210163443A1, “Febrifugine Derivatives” (BRISTOL-MYERS SQUIBB COMPANY, priority 2019, published 2021).

What was measured:
Rat hepatocytes = experiment: GSH trapping assay in rat hepatocytes; format: in vitro ADME; details: 30 μM, 24 hr incubation, LC-MS
Description: Rat hepatocytes were isolated from male Sprague-Dawley rats (Vivo Biotech Ltd, HYD, India), weighing 230 to 280 g by the two step collagenase perfusion method (seglen, 1976; Berry M N and Friend D S.1969). Rat hepatocytes were cultured in Dulbecco's Modified Eagle's Medium (DMEM, Gibco®, USA) supplemented with 10^−6 M dexamethasone (Gibco®), 5% fetal bovine serum (Gibco®) and cocktail-A mix (CM3000, Gibco®) containing HEPES buffer (PH 7.4), GlutaMAX™, human recombinant insulin, penicillin and streptomycin. Initial cell viability assessed by Trypanblue stain 0.4% (Sigma, UK) and viability more than 80% were considered for culturing. Hepatocytes were seeded in 96 well type-I collagen coated plates (Gibco®) at 4×10^4 cells/well in 100 μL of the culture medium and incubated at 37° C. in 5% CO2 and 95% relative humidity (RH) for 4 hr of cell attachment.
After 4 hr incubation, rat hepatocytes were washed twice with pre-warmed (37° C.) DMEM incubation medium supplemented with 10^−7 M dexamethasone and cell maintenance cocktail-B (CM4000, Gibco®) solution to remove unattached cells. Post washing hepatocytes were treated with test and reference compounds in incubation medium at single concentration (30 μM) in duplicate and incubate further for 24 hr at 37° C. with 5% CO2 and 95% RH. The final concentration of DMSO in medium was 0.5%.
Post 24 hr incubation, hepatocyte samples were quenched with equal volumes of acetonitrile containing 0.1% formic acid followed by vortex mix, sonicate and centrifuge at 12000 rpm at room temperature for 5 min. Supernatant samples were analyzed for GSH adducts on a C18 reverse-phase column (Xbridge™ Shield, C18, 4.6×150 mm, 3.5 μm) with solvent A (10 mM ammonium formate and 0.1% formic acid/water) and solvent B (0.1% formic acid/acetonitrile).
The column was eluted with 5% B for 5 min and then with a linear gradient to 20% B over 10 min and it was maintained up to 15 min, then it was increased linearly to 40% B up to 27 min and then increase to 90% B up to 29 min, and then equilibrate back the column to 5% B up to 33 min at a flow rate of 0.6 ml/min. The column effluent was directed into the ESI source of a LTQ Velos Orbitrap mass spectrometer (Thermo Fisher Scientific, San Jose, Calif.). The ESI conditions were as follows: sheath gas flow rate, 40 arbitrary units; auxiliary gas, 30 arbitrary units; spray voltage, 4.5 kV; capillary temperature, 230° C.; capillary voltage, 30 V; and tube lens offset, 25 V. Data were acquired in positive ion mode using Xcalibur software (Thermo Fisher Scientific) with one full scan followed by two data-dependent scans of the most intense and the second most intense ions. During the data interpretation the characteristic fragments of neutral loss of glycine (75.0320 Da), pyroglutamic acid (129.0426 Da) and loss of neutral moiety GSH (307.0838 Da) and/or a specific fragment of (GSH+H)^+ (m/z 308.0911) were monitored. Finally the fragments ions with m/z e.g. 179.0485, 177.0328 and 162.0219 Da, which were derived from the glutathione moiety were used to report GSH positive results.

[1] = target: T1, human ProRS (prolyl tRNA synthetase moiety of glutamyl prolyl tRNA synthetase, EPRS) (Homo sapiens, UniProt P07814); experiment: Assay for inhibitors of prolyl tRNA synthetase activity (ProRS assay, labeled proline incorporation); format: biochemical; details: human ProRS 20 nM, 10 min at 37° C.; read-out: EPRS IC50
T1 construct: The prolyl tRNA synthetase moiety (ProRS) in the cDNA of glutamyl prolyl tRNA synthetase was subcloned; 6xHis (N, cleaved yes); made in house; host or cells: E. coli BL21 (DE3)
T1 sequence (P07814 1007-1512 limits assumed): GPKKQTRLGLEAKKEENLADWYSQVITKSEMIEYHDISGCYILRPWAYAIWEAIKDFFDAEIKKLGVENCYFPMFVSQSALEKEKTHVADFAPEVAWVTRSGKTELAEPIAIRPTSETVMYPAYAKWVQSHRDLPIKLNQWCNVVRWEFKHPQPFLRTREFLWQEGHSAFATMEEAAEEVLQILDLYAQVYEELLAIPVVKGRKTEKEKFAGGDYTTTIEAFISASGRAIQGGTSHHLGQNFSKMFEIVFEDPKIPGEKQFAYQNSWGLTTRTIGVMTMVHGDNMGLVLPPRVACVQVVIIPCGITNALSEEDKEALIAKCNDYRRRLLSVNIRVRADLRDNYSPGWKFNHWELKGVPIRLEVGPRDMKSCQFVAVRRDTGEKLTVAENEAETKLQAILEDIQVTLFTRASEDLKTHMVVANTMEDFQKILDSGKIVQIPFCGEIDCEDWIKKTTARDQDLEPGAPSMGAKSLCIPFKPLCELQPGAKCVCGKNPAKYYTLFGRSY
How it was run: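 Biotinylated N-His-tagged human ProRS (20 nM) from E. coli, with Tris-Cl pH 7.5, 2 mM DTT, 5 mM ATP, MgCl2, bovine tRNA; compounds (10 μM to 0.5 nM) preincubated 15 min on ice. Started with proline (3.96 μM unlabeled, 1.04 μM labeled), 10 min at 37 °C, TCA-precipitated and scintillation-counted; IC50 from 4-parameter fit.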

[2] = in vivo; cited from earlier work
[3] = cited from earlier work

| Structure (SMILES) | GSH adduct formation (Rat hepatocytes) | IC50 [1] [nM] | anti-fibrotic properties [2] | toxicity in humans [3] |
| --- | --- | --- | --- | --- |
| Cl.O=c1c2c(F)cccc2ncn1C[C@@H](O)C[C@H]1NCCC[C@@H]1O [Example 40, 5-Fluoro-3-{(S)-2-hydroxy-3-[(2R,3S)-3-hydroxypiperidin-2-yl]propyl}quinazolin-4(3H)-one hydrochloride] | Negative | 302 | – | – |
| CCc1cc(Br)cc2c(=O)n(C[C@@H](O)C[C@H]3NCCC[C@@H]3O)cnc12.Cl [Example 48, 6-Bromo-8-ethyl-3-{(S)-2-hydroxy-3-[(2R,3S)-3-hydroxypiperidin-2-yl]propyl}quinazolin-4(3H)-one hydrochloride] | Negative | 83 | – | – |
| O=C(CC1NCCCC1O)Cn1cnc2cc(Br)c(Cl)cc2c1=O (stereo not drawn) [Halofuginone, 7-bromo-6-chloro-3-[3-(3-hydroxy-2-piperidinyl)-2-oxopropyl]-4(3H)-quinazolinone] | – | – | anti-fibrotic properties in vivo | nausea, vomiting, and fatigue, and possibly bleeding complications |
